Patent US20160346219A1, “PHOSPHOLIPID-COATED THERAPEUTIC AGENT NANOPARTICLES AND RELATED METHODS” (Autotelic LLC, priority 2015, published 2016)

Assay: Screening of lyoprotectants for stabilization of nanoparticles on lyophilization (particle size before lyophilization and after reconstitution)
Format: physicochemical
Conditions: single lyoprotectant, amounts 5-20% (FIG. 15)
Text: FIG. 15 compares particle size as a function of lyoprotectant and lyoprotectant amount for representative phospholipid-coated therapeutic agent (paclitaxel) nanoparticles of the invention, PC-coated paclitaxel nanoparticle manufactured by thin film-hydration method (LM-101), before lyophilization and after reconstitution.

Which “stabilization of particles on lyophilization (lyoprotectant)” value does the source give for `OC[C@H]1O[C@H](O[C@H]2O[C@H](CO)[C@@H](O)[C@H](O)[C@H]2O)[C@H](O)[C@@H](O)[C@@H]1O` [Trehalose] here?
Its value is “best in stabilizing the particles on lyophilization”.
